Reference: patent US10676465B2, “GLP-1 receptor agonists and uses thereof” (Pfizer Inc., priority 2018, dated 2020)
Like-named read-outs stand apart in the source and are kept apart here.

Key:
[1] = target: human GLP-1R (Homo sapiens (Human), UniProt P43220, L260F); test: CHO GLP-1R Clone C6 - Assay 2 (HTRF cAMP agonist assay, low receptor density); details: for Emax: read-out: Assay 2 Emax (%), CHO GLP-1R Clone C6 (low receptor density), arithmetic mean, relative to saturating GLP-1 (1 μM)
Description: CHO GLP-1R Clone C6—Assay 2
GLP-1R-mediated agonist activity was determined with a cell-based functional assay utilizing an HTRF (Homogeneous Time-Resolved Fluorescence) cAMP detection kit (cAMP HI Range Assay Kit; Cis Bio cat #62AM6PEJ) that measures cAMP levels in the cell. The method is a competitive immunoassay between native cAMP produced by the cells and exogenous cAMP labeled with the dye d2. The tracer binding is visualized by a mAb anti-cAMP labeled with Cryptate. The specific signal (i.e. energy transfer) is inversely proportional to the concentration of cAMP in either a standard or an experimental sample.
The human GLP-1R coding sequence (NCBI Reference Sequence NP_002053.3, including naturally-occurring variant Leu260Phe) was subcloned into pcDNA5-FRT-TO and a clonal CHO cell line stably expressing a low receptor density was isolated using the Flp-In™ T-Rex™ System, as described by the manufacturer (ThermoFisher).
Cells were removed from cryopreservation, re-suspended in 40 mL of Dulbecco's Phosphate Buffered Saline (DPBS—Lonza Cat #17-512Q) and centrifuged at 800×g for 5 minutes at 22° C. The DPBS was aspirated, and the cell pellet was re-suspended in 10 mL of complete growth medium (DMEM:F12 1:1 Mixture with HEPES, L-Gln, 500 mL (DMEM/F12 Lonza Cat #12-719F), 10% heat inactivated fetal bovine serum (Gibco Cat #16140-071), 5 mL of 100× Pen-Strep (Gibco Cat #15140-122), 5 mL of 100×L-Glutamine (Gibco Cat #25030-081), 700 μg/mL Hygromycin (Invitrogen Cat #10687010) and 15 μg/mL Blasticidin (Gibco Cat # R21001). A 1 mL sample of the cell suspension in growth media was counted on a Becton Dickinson ViCell to determine cell viability and cell count per mL. The remaining cell suspension was then adjusted with growth media to deliver 1600 viable cells per well using a Matrix Combi Multidrop reagent dispenser, and the cells were dispensed into a white 384 well tissue culture treated assay plate (Corning 3570). The assay plate was then incubated for 48 hours at 37° C. in a humidified environment (95% O2, 5% CO2)
Varying concentrations of each compound to be tested (in DMSO) were diluted in assay buffer [HBSS with Calcium/Magnesium (Lonza/BioWhittaker cat #10-527F)/0.1% BSA (Sigma Aldrich cat # A7409-1L)/20 mM HEPES (Lonza/BioWhittaker cat #17-737E)] containing 100 μM 3-isobutyl-1-methylxanthin (IBMX; Sigma cat #15879). The final DMSO concentration in the compound/assay buffer mixture is 1%.
After 48 hours, the growth media was removed from the assay plate wells, and the cells were treated with 20 μL of the serially diluted compound in assay buffer for 30 minutes at 37° C. in a humidified environment (95% O2, 5% CO2). Following the 30 minute incubation, 10 μL of labeled d2 cAMP and 10 μL of anti-cAMP antibody (both diluted 1:20 in cell lysis buffer; as described in the manufacturer's assay protocol) were added to each well of the assay plate. The plates were then incubated at room temperature and after 60 minutes, changes in the HTRF signal were read with an Envision 2104 multi-label plate reader using excitation of 330 nm and emissions of 615 and 665 nm. Raw data were converted to nM cAMP by interpolation from a cAMP standard curve (as described in the manufacturer's assay protocol) and the percent effect was determined relative to a saturating concentration of the full agonist GLP-1 (1 μM) included on each plate. EC50 determinations were made from agonist dose response curves analyzed with a curve fitting program using a 4-parameter logistic dose response equation.

[2] = target: human GLP-1R (Homo sapiens, UniProt P43220, G168S); test: CHO GLP-1R Clone H6 - Assay 1 (HTRF cAMP agonist assay); format: cell-based; details: for EC50: CHO GLP-1R Clone H6, cAMP HTRF, geometric mean; for Emax: CHO GLP-1R Clone H6, arithmetic mean, relative to saturating GLP-1 (1 μM)
Description: GLP-1R-mediated agonist activity was determined with a cell-based functional assay utilizing an HTRF (Homogeneous Time-Resolved Fluorescence) cAMP detection kit (cAMP HI Range Assay Kit; CisBio cat #62AM6PEJ) that measures cAMP levels in the cell. The method is a competitive immunoassay between native cAMP produced by the cells and exogenous cAMP labeled with the dye d2. The tracer binding is visualized by a mAb anti-cAMP labeled with Cryptate. The specific signal (i.e. energy transfer) is inversely proportional to the concentration of cAMP in either standard or experimental sample.
The human GLP-1R coding sequence (NCBI Reference Sequence NP_002053.3, including naturally-occurring variant Gly168Ser) was subcloned into pcDNA3 (Invitrogen) and a cell line stably expressing the receptor was isolated (designated Clone H6).
Cells were removed from cryopreservation, re-suspended in 40 mL of Dulbecco's Phosphate Buffered Saline (DPBS—Lonza Cat #17-512Q) and centrifuged at 800×g for 5 minutes at 22° C. The cell pellet was then re-suspended in 10 mL of growth medium [DMEM/F12 1:1 Mixture with HEPES, L-Gln, 500 mL (DMEM/F12 Lonza Cat #12-719F), 10% heat inactivated fetal bovine serum (Gibco Cat #16140-071), 5 mL of 100× Pen-Strep (Gibco Cat #15140-122), 5 mL of 100×L-Glutamine (Gibco Cat #25030-081) and 500 μg/mL Geneticin (G418) (Invitrogen #10131035)]. A 1 mL sample of the cell suspension in growth media was counted on a Becton Dickinson ViCell to determine cell viability and cell count per mL. The remaining cell suspension was then adjusted with growth media to deliver 2000 viable cells per well using a Matrix Combi Multidrop reagent dispenser, and the cells were dispensed into a white 384 well tissue culture treated assay plate (Corning 3570). The assay plate was then incubated for 48 hours at 37° C. in a humidified environment in 5% carbon dioxide.
Varying concentrations of each compound to be tested (in DMSO) were diluted in assay buffer (HBSS with Calcium/Magnesium (Lonza/BioWhittaker cat #10-527F)/0.1% BSA (Sigma Aldrich cat # A7409-1L)/20 mM HEPES (Lonza/BioWhittaker cat #17-737E) containing 100 μM 3-isobutyl-1-methylxanthin (IBMX; Sigma cat #15879). The final DMSO concentration is 1%.
After 48 hours, the growth media was removed from the assay plate wells, and the cells were treated with 20 μL of the serially diluted compound in assay buffer for 30 minutes at 37° C. in a humidified environment in 5% carbon dioxide. Following the 30 minute incubation, 10 μL of labeled d2 cAMP and 10 μL of anti-cAMP antibody (both diluted 1:20 in cell lysis buffer; as described in the manufacturer's assay protocol) were added to each well of the assay plate. The plates were then incubated at room temperature and after 60 minutes, changes in the HTRF signal were read with an Envision 2104 multi-label plate reader using excitation of 330 nm and emissions of 615 and 665 nm. Raw data were converted to nM cAMP by interpolation from a cAMP standard curve (as described in the manufacturer's assay protocol) and the percent effect was determined relative to a saturating concentration of the full agonist GLP-17-36 (1 μM) included on each plate. EC50 determinations were made from agonist dose-response curves analyzed with a curve fitting program using a 4-parameter logistic dose response equation.

[3] = read-out: Assay 2 EC50, CHO GLP-1R Clone C6 (low receptor density), cAMP HTRF, geometric mean

Chain of human GLP-1R (Homo sapiens (Human), UniProt P43220, L260F) (P43220 24-463 L260F): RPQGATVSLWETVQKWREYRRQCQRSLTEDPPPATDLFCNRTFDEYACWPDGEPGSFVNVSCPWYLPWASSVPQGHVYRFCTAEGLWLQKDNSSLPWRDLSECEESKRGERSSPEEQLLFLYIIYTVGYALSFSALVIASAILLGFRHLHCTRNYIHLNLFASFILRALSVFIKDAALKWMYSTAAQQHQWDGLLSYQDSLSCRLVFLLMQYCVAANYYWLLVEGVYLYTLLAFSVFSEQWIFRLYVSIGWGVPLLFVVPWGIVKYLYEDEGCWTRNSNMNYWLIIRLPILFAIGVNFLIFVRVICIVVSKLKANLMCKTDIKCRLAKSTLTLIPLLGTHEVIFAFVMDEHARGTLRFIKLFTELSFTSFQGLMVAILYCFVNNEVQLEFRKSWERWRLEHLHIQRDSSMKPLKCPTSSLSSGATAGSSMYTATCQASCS
Chain of human GLP-1R (Homo sapiens, UniProt P43220, G168S) (P43220 24-463 G168S limits assumed): as the sequence (P43220 24-463 L260F) above, with G145S, F237L counted along it

| SMILES | EC50 [1, 3] [µM] | Emax [1] [%] | EC50 [2] [µM] | Emax [2] [%] | EC50 ([1]; EC50 in Assay 2, CHO GLP-1R Clone C6, cAMP, geometric mean of replicates) [µM] | EC50 ([1]; read-out: EC50 in Assay 2, CHO GLP-1R Clone C6, cAMP, geometric mean of replicates) [µM] |
| --- | --- | --- | --- | --- | --- | --- |
| COCCn1c(CN2CCC(c3cccc4c3OC(C)(c3ccc(F)cc3)O4)CC2)nc2ccc(C(=O)O)cc21 (stereo not drawn) [Example 38, 2-({4-[2-(4-fluorophenyl)-2-methyl-1,3-benzodioxol-4-yl]piperidin-1-yl}methyl)-1-(2-methoxyethyl)-1H-benzimidazole-6-carboxylic acid] | 0.24 | 73 | 0.01 | 87 | – | – |
| CC1(c2ccc(Cl)cn2)Oc2cccc(C3CCN(Cc4nc5ccc(C(=O)O)cc5n4C[C@@H]4CCO4)CC3)c2O1 (single isomer, unassigned) [Example 10] | – | 96 | – | 99 | – | – |
| COCCn1c(CN2CCC(c3cccc4c3OC(C)(c3ccc(Cl)cc3)O4)CC2)nc2ccc(C(=O)O)cc21 (stereo not drawn) [Example 33, 2-({4-[2-(4-chlorophenyl)-2-methyl-1,3-benzodioxol-4-yl]piperidin-1-yl}methyl)-1-(2-methoxyethyl)-1H-benzimidazole-6-carboxylic acid] | 0.1 | 86 | 0.0026 | 85 | – | – |
| COCCn1c(CN2CCC(c3cccc4c3OC(C)(c3ccccc3OC)O4)CC2)nc2ccc(C(=O)O)cc21 (stereo not drawn) [Example 37, 1-(2-methoxyethyl)-2-({4-[2-(2-methoxyphenyl)-2-methyl-1,3-benzodioxol-4-yl]piperidin-1-yl}methyl)-1H-benzimidazole-6-carboxylic acid] | 1 | 83 | 0.081 | 100 | – | – |
| COCCn1c(CN2CCC(c3cccc4c3OC(c3ccc(Cl)cc3F)O4)CC2)nc2ccc(C(=O)O)cc21 (stereo not drawn) [Example 20, 2-({4-[2-(4-chloro-2-fluorophenyl)-1,3-benzodioxol-4-yl]piperidin-1-yl}methyl)-1-(2-methoxyethyl)-1H-benzimidazole-6-carboxylic acid] | 0.27 | 100 | 0.017 | 85 | – | – |
| O=C(O)c1ccc2nc(CN3CCC(c4cccc5c4O[C@H](c4ccc(Cl)cc4F)O5)CC3)n(C[C@@H]3CCO3)c2c1 [Example 4, Ammonium 2-({4-[(2R)-2-(4-chloro-2-fluorophenyl)-1,3-benzodioxol-4-yl]piperidin-1-yl}methyl)-1-[(2S)-oxetan-2-ylmethyl]-1H-benzimidazole-6-carboxylate] | > 20 | – | 1.6 | 87 | – | > 20 |

Continued, values first:

| EC50 [1, 3] [µM] | Emax [1] [%] | EC50 [2] [µM] | Emax [2] [%] | EC50 ([1]; EC50 in Assay 2, CHO GLP-1R Clone C6, cAMP, geometric mean of replicates) [µM] | EC50 ([1]; read-out: EC50 in Assay 2, CHO GLP-1R Clone C6, cAMP, geometric mean of replicates) [µM] | SMILES |
| --- | --- | --- | --- | --- | --- | --- |
| 0.078 | 100 | 0.0045 | 89 | – | – | Cn1cnnc1Cn1c(CN2CCC(c3cccc4c3OC(C)(c3ccc(Cl)cc3F)O4)CC2)nc2ccc(C(=O)O)cc21 (stereo not drawn) [Example 78, 2-({4-[2-(4-chloro-2-fluorophenyl)-2-methyl-1,3-benzodioxol-4-yl]piperidin-1-yl}methyl)-1-[(4-methyl-4H-1,2,4-triazol-3-yl)methyl]-1H-benzimidazole-6-carboxylic acid] |
| 0.011 | 99 | 0.0012 | 99 | – | – | CC1(c2ccc(Cl)cc2F)Oc2cccc(C3CCN(Cc4nc5ccc(C(=O)O)cc5n4Cc4cccnc4)CC3)c2O1 (stereo not drawn) [Example 65, 2-({4-[2-(4-chloro-2-fluorophenyl)-2-methyl-1,3-benzodioxol-4-yl]piperidin-1-yl}methyl)-1-(pyridin-3-ylmethyl)-1H-benzimidazole-6-carboxylic acid] |
| 0.065 | 86 | 0.0035 | 88 | – | – | CC(=O)N(C)CCn1c(CN2CCC(c3cccc4c3OC(C)(c3ccc(Cl)cc3F)O4)CC2)nc2ccc(C(=O)O)cc21 (stereo not drawn) [Example 43, 1-{2-[acetyl(methyl)amino]ethyl}-2-({4-[2-(4-chloro-2-fluorophenyl)-2-methyl-1,3-benzodioxol-4-yl]piperidin-1-yl}methyl)-1H-benzimidazole-6-carboxylic acid] |
| 0.023 | 97 | 0.0013 | 89 | 0.02 | – | O=C(O)c1ccc2nc(CN3CCC(c4cccc5c4O[C@@H](c4ccc(Cl)cc4F)O5)CC3)n(C[C@@H]3CCO3)c2c1 [Example 5, Ammonium 2-({4-[(2S)-2-(4-chloro-2-fluorophenyl)-1,3-benzodioxol-4-yl]piperidin-1-yl}methyl)-1-[(2S)-oxetan-2-ylmethyl]-1H-benzimidazole-6-carboxylate] |
